Where two headings read alike, the source gives them in different places. Peptide text beside a SMILES is read from it. * marks the point of attachment. Cbz = O=C(OCc1ccccc1)*
Experiments:
[1] = tested on: GlyR α1 T162M protein in HEK293 cells; assay: Protein degradation analysis on whole cell lysates (Western blot) with proteasome or lysosome inhibitors; assay type: cell-based, human; details: for GlyR protein level after lysosomal block: leupeptin 200 μg/mL
Method: (§1) HEK293 cells transiently expressing GlyR α1 wt or α1 variants were incubated under standard growth conditions with proteasome or lysosome inhibitors for specific time periods (all inhibitors have been obtained from Sigma-Aldrich, St. Louis, MO, USA). Cells were incubated with 1 μM of MG132 for 1, 2, and 4 h. The lysosome inhibitor leupeptin (200 μg/mL) was incubated for 6, 12, and 24 h together with the transfected cells.
(§2) At each time point, media was aspirated and cells were washed twice with PBS followed by incubation with CytoBuster Protein Extraction Reagent (Merck Millipore, Darmstadt, Germany) supplemented with protease inhibitor for 5 min at room temperature. The resulting cell suspension was centrifuged for 5 min at 16.000 g and 4°C resulting in a supernatant containing solubilized proteins.
(§3) Western Blot Analysis—For SDS-PAGE, 11% polyacrylamide gels were freshly prepared, followed by Western blot on nitrocellulose membranes (GE Healthcare, Freiburg, Germany). Membranes were blocked for 1 h with 5% BSA in TBS-T (TBS with 1% Tween 20). Primary antibodies were incubated overnight at 4°C. GlyR α1 wt and GlyR mutants were detected with the pan-α antibody MAb4a (Synaptic Systems, Göttingen, Germany), recognizing an epitope in the N-terminus of the GlyRs (residues 96–105). In biotinylation experiments, cadherin was chosen as loading control detected by the pan-Cadherin antibody (Cell Signaling Technology, Danvers, MA, USA). For lysate analysis, GAPDH served as a loading control (Calbiochem, Darmstadt, Germany). Signals were detected using the ECLplus system (GE Healthcare, Freiburg, Germany).

[2] = tested on: GlyR α1 wt protein in HEK293 cells; assay: as above; assay type: cell-based, human
Method: as §1, §2, §3

GlyR α1 G160A = GlyR α1 G160A (Homo sapiens, UniProt P23415, G188A); details: 100 μM glycine
Method: (§4) HEK293 cells were transiently transfected using a modified calcium-phosphate precipitation method, were a mixture of plasmid DNA, CaCl2, and 2x HBS buffer (50 mM HEPES, 12 mM glucose, 10 mM KCl, 280 mM NaCl, 1.5 mM Na2HPO4) was applied onto the cells.
(§5) Maximal current amplifications (Imax) were measured by the patch clamp technique in a whole-cell configuration mode. Current signals were amplified with an EPC-9 amplifier (HEKA, Lambrecht, Germany). […] The extracellular buffer consisted of 137 mM NaCl, 5.4 mM KCl, 1.8 mM CaCl2, 1 mM MgCl2, […], 10 mM HEPES, with a pH adjusted to 7.4 with NaOH. The internal buffer was 120 mM CsCl, 20 mM N(Et)4Cl, 1 mM CaCl2, 3 mM MgCl2, 11 mM EGTA, 10 mM HEPES with a pH adjusted to 7.4 with CsOH. Recording pipettes were fabricated from borosilicate capillaries with an open resistance of about 4 MΩ. Current responses were measured at a holding potential of −60 mV. All experiments were carried out at room temperature. Error bars refer to S.E.M. values.

GlyR α1 G160R = GlyR α1 G160R (Homo sapiens, UniProt P23415, G188R); details: 100 μM glycine
Method: as §4, §5

GlyR α1 G160S = GlyR α1 G160S (Homo sapiens, UniProt P23415, G188S); details: 100 μM glycine
Method: as §4, §5

GlyR α1 T162 mutants = details: glycine 3–10 mM
Method: as §4, §5

GlyR α1 T162A = GlyR α1 T162A (Homo sapiens, UniProt P23415, T190A); details: 100 μM glycine
Method: as §4, §5

GlyR α1 T162D = GlyR α1 T162D (Homo sapiens, UniProt P23415, T190D)
Method: as §4, §5

GlyR α1 T162M = GlyR α1 T162M (Homo sapiens, UniProt P23415, T190M); details: 100 μM glycine
Method: as §4, §5

GlyR α1 T162N = GlyR α1 T162N (Homo sapiens, UniProt P23415, T190N); details: 100 μM glycine
Method: as §4, §5

GlyR α1 T162P = GlyR α1 T162P (Homo sapiens, UniProt P23415, T190P); details: 100 μM glycine
Method: as §4, §5

GlyR α1 wt = GlyR α1 wt (Homo sapiens, UniProt P23415); details: 100 μM glycine
Method: as §4, §5

Sequence of GlyR α1 T162D (P23415 29-457 T190D): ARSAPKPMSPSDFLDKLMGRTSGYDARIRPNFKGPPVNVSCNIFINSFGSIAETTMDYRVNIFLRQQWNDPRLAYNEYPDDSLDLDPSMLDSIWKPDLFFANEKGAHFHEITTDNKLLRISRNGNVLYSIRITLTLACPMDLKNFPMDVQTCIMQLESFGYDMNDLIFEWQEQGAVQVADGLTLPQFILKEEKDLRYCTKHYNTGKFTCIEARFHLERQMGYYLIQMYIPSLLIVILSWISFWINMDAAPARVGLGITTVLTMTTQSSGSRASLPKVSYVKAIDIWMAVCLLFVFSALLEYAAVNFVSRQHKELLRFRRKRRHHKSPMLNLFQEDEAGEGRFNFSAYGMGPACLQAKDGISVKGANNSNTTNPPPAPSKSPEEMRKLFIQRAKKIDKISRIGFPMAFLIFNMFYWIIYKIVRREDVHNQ
Sequence of GlyR α1 T162N (P23415 29-457 T190N): as the sequence (P23415 29-457 T190D) above, with D162N counted along it
Sequence of GlyR α1 wt (P23415 29-457): as the sequence (P23415 29-457 T190D) above, with D162T counted along it
Sequence of GlyR α1 T162A (P23415 29-457 T190A): as the sequence (P23415 29-457 T190D) above, with D162A counted along it
Sequence of GlyR α1 G160S (P23415 29-457 G188S): as the sequence (P23415 29-457 T190D) above, with G160S, D162T counted along it
Sequence of GlyR α1 T162P (P23415 29-457 T190P): as the sequence (P23415 29-457 T190D) above, with D162P counted along it
Sequence of GlyR α1 G160A (P23415 29-457 G188A): as the sequence (P23415 29-457 T190D) above, with G160A, D162T counted along it
Sequence of GlyR α1 T162M (P23415 29-457 T190M): as the sequence (P23415 29-457 T190D) above, with D162M counted along it
Sequence of GlyR α1 G160R (P23415 29-457 G188R): as the sequence (P23415 29-457 T190D) above, with G160R, D162T counted along it

## CC(C)C[C@@H](C=O)NC(=O)[C@H](CC(C)C)NC(=O)[C@H](CC(C)C)NC(=O)OCc1ccccc1 [MG132] (Cbz-Leu-Leu-Leu-aldehyde)
[1]; 1 μM MG132, 2 h, compared to wt
  GlyR protein level after proteasomal block: significant increase
[2]; 1 μM MG132, 2 h
  GlyR protein level after proteasomal block: not affected

## CC(=O)N[C@@H](CC(C)C)C(=O)N[C@@H](CC(C)C)C(=O)N[C@H](C=O)CCCNC(=N)N [leupeptin]
[1]; 6 h
  GlyR protein level after lysosomal block: did not show any differences
[1]; 12 h, in contrast to wt
  GlyR protein level after lysosomal block: reduced protein levels
[2]; leupeptin 200 μg/mL, 12 h
  GlyR protein level after lysosomal block: accumulations

## NCC(=O)O [glycine]
GlyR α1 G160A; G160A
  Irel current, % of the wt current: 92 ± 12%
GlyR α1 G160A; α1 G160A
  Imax ± SEM: 1453 ± 197 pA
GlyR α1 G160R; G160R
  Irel current, % of the wt current: 69 ± 10%
GlyR α1 G160R; α1 G160R
  Imax ± SEM: 1089 ± 167 pA
GlyR α1 G160S; G160S
  Irel current, % of the wt current: 68 ± 22%
GlyR α1 G160S; α1 G160S
  Imax ± SEM: 1061 ± 359 pA
GlyR α1 T162 mutants
  functionality compared to wt receptors: indistinguishable from wt receptors
GlyR α1 T162A; T162A
  Irel current, % of maximum current of wt: 4 ± 1%
GlyR α1 T162A; α1 T162A
  Imax ± SEM: 148 ± 45 pA
GlyR α1 T162D; T162D, 100 μM glycine, measured in two out of five cells
  Irel current, % of wt currents: less than 1%
GlyR α1 T162D; T162D, saturating glycine 10 mM
  whole cell maximal currents compared to wt: indistinguishable from GlyR α1 wt
GlyR α1 T162D; α1 T162D, 100 μM glycine
  Imax ± SEM: 10 ± 6 pA
GlyR α1 T162M; T162M
  Irel current, % of I100μM compared to wt: 11 ± 5%
GlyR α1 T162M; α1 T162M
  Imax ± SEM: 309 ± 154 pA
GlyR α1 T162N; T162N
  Irel current, % of the wt current: 13 ± 3%
  reduction of the wt response: 85%
GlyR α1 T162N; α1 T162N
  Imax ± SEM: 447 ± 96 pA
GlyR α1 T162P; T162P
  Irel current, % of the wt current: 29 ± 10%
GlyR α1 T162P; α1 T162P
  Imax ± SEM: 832 ± 300 pA
GlyR α1 wt; wt control of the G160 series
  Imax ± SEM: 1571 ± 260 pA
GlyR α1 wt; wt control of the T162 series
  Imax ± SEM: 2916 ± 371 pA

Source: publication PMC4686643 (Frontiers in Molecular Neuroscience, 2015)
